The test concerns the target T1, ΔF508-CFTR (Homo sapiens, UniProt P13569, DEL508-508).
T1 construct: expressed in transfected cells
Kind of test: Membrane potential optical assay for ΔF508-CFTR correction properties of compounds. In kind it is cell-based. The conditions noted are these: ΔF508-CFTR in NIH3T3 mouse fibroblasts; test behind Table 2 not named. An excerpt:
Assays for Detecting and Measuring ΔF508-CFTR Correction Properties of Compounds
Membrane potential optical methods for assaying ΔF508-CFTR modulation properties of compounds.
The assay utilizes fluorescent voltage sensing dyes to measure changes in membrane potential using a fluorescent plate reader (e.g., FLIPR III, Molecular Devices, Inc.) as a readout for increase in functional ΔF508-CFTR in NIH 3T3 cells. The driving force for the response is the creation of a chloride ion gradient in conjunction with channel activation by a single liquid addition step after the cells have previously been treated with compounds and subsequently loaded with a voltage sensing dye.
Identification of Correction Compounds
To identify small molecules that correct the trafficking defect associated with ΔF508-CFTR; a single-addition HTS assay format was developed. […] Cells are then ready for compound exposure after adhering to the bottom of the assay plates.
The cells were incubated in serum-free medium for 16-24 hrs in tissue culture incubator at 37° C., 5% CO2, 90% humidity in the presence or absence (negative control) of test compound. […] The addition of Cl^−-free medium promoted Cl^− efflux in response to ΔF508-CFTR activation and the resulting membrane depolarization was optically monitored using voltage sensor dyes. […]

T1 sequence (P13569 with tags, fused parts or gaps DEL508-508): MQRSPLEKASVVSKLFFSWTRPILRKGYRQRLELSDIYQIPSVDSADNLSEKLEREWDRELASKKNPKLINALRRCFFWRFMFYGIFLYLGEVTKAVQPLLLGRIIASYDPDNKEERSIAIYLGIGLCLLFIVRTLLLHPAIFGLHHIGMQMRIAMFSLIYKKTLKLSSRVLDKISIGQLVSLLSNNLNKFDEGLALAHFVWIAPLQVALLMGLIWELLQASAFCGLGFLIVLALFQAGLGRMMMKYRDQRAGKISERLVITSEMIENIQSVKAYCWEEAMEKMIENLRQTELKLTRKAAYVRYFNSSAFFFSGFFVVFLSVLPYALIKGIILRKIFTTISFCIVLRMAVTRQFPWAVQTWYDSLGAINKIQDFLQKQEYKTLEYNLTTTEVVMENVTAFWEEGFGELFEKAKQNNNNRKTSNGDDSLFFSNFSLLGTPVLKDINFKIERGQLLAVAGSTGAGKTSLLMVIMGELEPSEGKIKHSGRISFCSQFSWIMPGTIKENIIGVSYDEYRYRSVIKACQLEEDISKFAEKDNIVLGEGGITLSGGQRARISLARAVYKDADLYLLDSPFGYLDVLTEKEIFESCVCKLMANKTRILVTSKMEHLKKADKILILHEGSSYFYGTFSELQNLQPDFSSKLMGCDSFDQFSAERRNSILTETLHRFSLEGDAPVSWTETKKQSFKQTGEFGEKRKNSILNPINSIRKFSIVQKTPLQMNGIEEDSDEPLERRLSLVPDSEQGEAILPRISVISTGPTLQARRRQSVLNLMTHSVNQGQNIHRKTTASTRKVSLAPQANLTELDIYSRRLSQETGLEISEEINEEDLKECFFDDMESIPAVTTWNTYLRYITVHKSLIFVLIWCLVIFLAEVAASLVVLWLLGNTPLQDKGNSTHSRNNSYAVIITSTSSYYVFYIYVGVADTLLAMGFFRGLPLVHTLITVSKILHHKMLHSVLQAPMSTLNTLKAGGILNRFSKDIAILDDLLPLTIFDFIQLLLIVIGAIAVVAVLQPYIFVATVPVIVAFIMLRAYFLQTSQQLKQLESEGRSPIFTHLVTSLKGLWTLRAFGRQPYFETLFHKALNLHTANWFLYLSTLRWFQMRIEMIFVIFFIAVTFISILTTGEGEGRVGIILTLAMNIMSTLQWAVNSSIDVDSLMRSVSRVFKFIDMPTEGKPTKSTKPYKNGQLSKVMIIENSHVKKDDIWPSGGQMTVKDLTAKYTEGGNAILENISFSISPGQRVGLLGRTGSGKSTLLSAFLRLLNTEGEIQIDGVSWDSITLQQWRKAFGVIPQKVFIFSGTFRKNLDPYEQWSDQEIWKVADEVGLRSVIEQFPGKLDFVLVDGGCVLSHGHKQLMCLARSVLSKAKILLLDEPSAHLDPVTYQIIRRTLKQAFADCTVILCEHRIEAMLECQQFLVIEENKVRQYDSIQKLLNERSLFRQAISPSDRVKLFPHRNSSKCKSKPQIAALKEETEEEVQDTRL

As usually defined, the EC50 is the concentration giving half of the maximal effect. With `CC1(C)c2cc3cc(NC(=O)C4(c5ccc6c(c5)OC(F)(F)O6)CC4)c(F)cc3n2C[C@H](CO)OC1O` (stereo partly drawn) [1-(2,2-difluorobenzo[d][1,3]dioxol-5-yl)-N-((4R)-8-fluoro-2-hydroxy-4-(hydroxymethyl)-1,1-dimethyl-1,2,4,5-tetrahydro-[1,4]oxazepino[4,5-a]indol-9-yl)cyclopropanecarboxamide], the EC50 was under 2000 nM.

These data come from patent publication US9254291B2, “Modulators of ATP-binding cassette transporters” (VERTEX PHARMACEUTICALS INCORPORATED, priority 2011, dated 2016).
